PubChem BioAssay (NCI)
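Briefly, cells in 96-well plates were exposed to five compound concentrations for 48 h, and endpoints were estimated by linear interpolation. Abbreviation: GI50, concentration required for 50% inhibition of growth. TGI: total growth inhibition.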

How the values were obtained:
Test in all cases: growth of human tumour cells (NCI), 48 h
DMS 273 small cell lung = tested on: DMS 273 small cell lung
HCT-116 colon = tested on: HCT-116 colon
SNB-75 CNS = tested on: SNB-75 CNS
DLD-1 colon = tested on: DLD-1 colon
SK-MEL-28 melanoma = tested on: SK-MEL-28 melanoma
UO-31 renal = tested on: UO-31 renal
TK-10 renal = tested on: TK-10 renal
LOX IMVI melanoma = tested on: LOX IMVI melanoma
OVCAR-4 ovarian = tested on: OVCAR-4 ovarian
MOLT-4 leukemia = tested on: MOLT-4 leukemia
SW-620 colon = tested on: SW-620 colon
HCC-2998 colon = tested on: HCC-2998 colon
UACC-257 melanoma = tested on: UACC-257 melanoma
NCI-H23 lung = tested on: NCI-H23 lung
A498 renal = tested on: A498 renal
KM12 colon = tested on: KM12 colon
SF-295 CNS = tested on: SF-295 CNS
U251 CNS = tested on: U251 CNS
SF-268 CNS = tested on: SF-268 CNS
HOP-92 NSCLC = tested on: HOP-92 NSCLC
HOP-18 NSCLC = tested on: HOP-18 NSCLC
CCRF-CEM leukemia = tested on: CCRF-CEM leukemia
CAKI-1 renal = tested on: CAKI-1 renal
OVCAR-5 ovarian = tested on: OVCAR-5 ovarian
SNB-78 CNS = tested on: SNB-78 CNS
OVCAR-3 ovarian = tested on: OVCAR-3 ovarian
M14 melanoma = tested on: M14 melanoma
COLO 205 colon = tested on: COLO 205 colon
HL-60(TB) leukemia = tested on: HL-60(TB) leukemia
MALME-3M melanoma = tested on: MALME-3M melanoma
NCI-H226 lung = tested on: NCI-H226 lung
HCT-15 colon = tested on: HCT-15 colon
LXFL 529 NSCLC = tested on: LXFL 529 NSCLC
SNB-19 CNS = tested on: SNB-19 CNS
NCI-H522 lung = tested on: NCI-H522 lung
K-562 leukemia = tested on: K-562 leukemia
OVCAR-8 ovarian = tested on: OVCAR-8 ovarian
EKVX NSCLC = tested on: EKVX NSCLC
SN12C renal = tested on: SN12C renal
HOP-62 NSCLC = tested on: HOP-62 NSCLC
786-0 renal = tested on: 786-0 renal
KM20L2 colon = tested on: KM20L2 colon
UACC-62 melanoma = tested on: UACC-62 melanoma
NCI-H460 lung = tested on: NCI-H460 lung
SF-539 CNS = tested on: SF-539 CNS
SK-MEL-5 melanoma = tested on: SK-MEL-5 melanoma
RPMI-8226 leukemia = tested on: RPMI-8226 leukemia
SK-OV-3 ovarian = tested on: SK-OV-3 ovarian
IGROV1 ovarian = tested on: IGROV1 ovarian
HT29 colon = tested on: HT29 colon
A549 NSCLC = tested on: A549 NSCLC
ACHN renal = tested on: ACHN renal
SK-MEL-2 melanoma = tested on: SK-MEL-2 melanoma
RXF 393 renal = tested on: RXF 393 renal

CC(CN(CP(=O)([O-])[O-])CP(=O)([O-])[O-])N(CP(=O)([O-])[O-])CP(=O)([O-])[O-].N[C@@H]1CCCC[C@@H]1N.[Pt+2] (stereo not drawn)
GI50 (DMS 273 small cell lung): > 100 µM
TGI (DMS 273 small cell lung): > 100 µM
GI50 (HCT-116 colon): > 100 µM
TGI (HCT-116 colon): > 100 µM
GI50 (SNB-75 CNS): > 100 µM
TGI (SNB-75 CNS): > 100 µM
GI50 (DLD-1 colon): > 100 µM
TGI (DLD-1 colon): > 100 µM
GI50 (SK-MEL-28 melanoma): > 100 µM
TGI (SK-MEL-28 melanoma): > 100 µM
GI50 (UO-31 renal): > 100 µM
TGI (UO-31 renal): > 100 µM
GI50 (TK-10 renal): > 100 µM
TGI (TK-10 renal): > 100 µM
GI50 (LOX IMVI melanoma): > 100 µM
TGI (LOX IMVI melanoma): > 100 µM
GI50 (OVCAR-4 ovarian): > 100 µM
TGI (OVCAR-4 ovarian): > 100 µM
GI50 (MOLT-4 leukemia): > 100 µM
TGI (MOLT-4 leukemia): > 100 µM
GI50 (SW-620 colon): > 100 µM
TGI (SW-620 colon): > 100 µM
GI50 (HCC-2998 colon): > 100 µM
TGI (HCC-2998 colon): > 100 µM
GI50 (UACC-257 melanoma): > 100 µM
TGI (UACC-257 melanoma): > 100 µM
GI50 (NCI-H23 lung): > 100 µM
TGI (NCI-H23 lung): > 100 µM
GI50 (A498 renal): > 100 µM
TGI (A498 renal): > 100 µM
GI50 (KM12 colon): > 100 µM
TGI (KM12 colon): > 100 µM
GI50 (SF-295 CNS): > 100 µM
TGI (SF-295 CNS): > 100 µM
GI50 (U251 CNS): > 100 µM
TGI (U251 CNS): > 100 µM
GI50 (SF-268 CNS): > 100 µM
TGI (SF-268 CNS): > 100 µM
GI50 (HOP-92 NSCLC): > 100 µM
TGI (HOP-92 NSCLC): > 100 µM
GI50 (HOP-18 NSCLC): > 100 µM
TGI (HOP-18 NSCLC): > 100 µM
GI50 (CCRF-CEM leukemia): > 100 µM
TGI (CCRF-CEM leukemia): > 100 µM
GI50 (CAKI-1 renal): > 100 µM
TGI (CAKI-1 renal): > 100 µM
GI50 (OVCAR-5 ovarian): > 100 µM
TGI (OVCAR-5 ovarian): > 100 µM
GI50 (SNB-78 CNS): > 100 µM
TGI (SNB-78 CNS): > 100 µM
GI50 (OVCAR-3 ovarian): > 100 µM
TGI (OVCAR-3 ovarian): > 100 µM
GI50 (M14 melanoma): > 100 µM
TGI (M14 melanoma): > 100 µM
GI50 (COLO 205 colon): > 100 µM
TGI (COLO 205 colon): > 100 µM
GI50 (HL-60(TB) leukemia): > 100 µM
TGI (HL-60(TB) leukemia): > 100 µM
GI50 (MALME-3M melanoma): > 100 µM
TGI (MALME-3M melanoma): > 100 µM
GI50 (NCI-H226 lung): > 100 µM
TGI (NCI-H226 lung): > 100 µM
GI50 (HCT-15 colon): > 100 µM
TGI (HCT-15 colon): > 100 µM
GI50 (LXFL 529 NSCLC): > 100 µM
TGI (LXFL 529 NSCLC): > 100 µM
GI50 (SNB-19 CNS): > 100 µM
TGI (SNB-19 CNS): > 100 µM
GI50 (NCI-H522 lung): > 100 µM
TGI (NCI-H522 lung): > 100 µM
GI50 (K-562 leukemia): > 100 µM
TGI (K-562 leukemia): > 100 µM
GI50 (OVCAR-8 ovarian): > 100 µM
TGI (OVCAR-8 ovarian): > 100 µM
GI50 (EKVX NSCLC): > 100 µM
TGI (EKVX NSCLC): > 100 µM
GI50 (SN12C renal): > 100 µM
TGI (SN12C renal): > 100 µM
GI50 (HOP-62 NSCLC): > 100 µM
TGI (HOP-62 NSCLC): > 100 µM
GI50 (786-0 renal): > 100 µM
TGI (786-0 renal): > 100 µM
GI50 (KM20L2 colon): > 100 µM
TGI (KM20L2 colon): > 100 µM
GI50 (UACC-62 melanoma): > 100 µM
TGI (UACC-62 melanoma): > 100 µM
GI50 (NCI-H460 lung): > 100 µM
TGI (NCI-H460 lung): > 100 µM
GI50 (SF-539 CNS): > 100 µM
TGI (SF-539 CNS): > 100 µM
GI50 (SK-MEL-5 melanoma): > 100 µM
TGI (SK-MEL-5 melanoma): > 100 µM
GI50 (RPMI-8226 leukemia): > 100 µM
TGI (RPMI-8226 leukemia): > 100 µM
GI50 (SK-OV-3 ovarian): > 100 µM
TGI (SK-OV-3 ovarian): > 100 µM
GI50 (IGROV1 ovarian): > 100 µM
TGI (IGROV1 ovarian): > 100 µM
GI50 (HT29 colon): > 100 µM
TGI (HT29 colon): > 100 µM
GI50 (A549 NSCLC): > 100 µM
TGI (A549 NSCLC): > 100 µM
GI50 (ACHN renal): > 100 µM
TGI (ACHN renal): > 100 µM
GI50 (SK-MEL-2 melanoma): > 100 µM
TGI (SK-MEL-2 melanoma): > 100 µM
GI50 (RXF 393 renal): > 100 µM
TGI (RXF 393 renal): > 100 µM
